Reference: patent US20230085721A1, “PIGMENT COMPRISING RAPHANUS SATIVUS EXTRACT AND MONTMORILLONITE” (GIVAUDAN SA, priority 2020, published 2023)
Marks after values point to notes of the source that are not given here.

Test system: human normal keratinocytes (NHEKs)
Test: ROS production after oxidative stress (DCFH-DA method)
Type: cell-based
Conditions: 200 μM
Method: The anti-oxidant properties of Raphanus sativus L. root extract was evaluated using human normal keratinocytes (NHEKs) by quantification of Reactive Oxygen Species (ROS) production after oxidative stress exposure according to the dichlorodihydrofluorescein diacetate (DCFH-DA; “Dichloro-dihydro-fluorescein diacetate (DCFH-DA) assay: a quantitative method for oxidative stress assessment of nanoparticle-treated cells”. Aranda et al. Toxicol In Vitro. 2013, 27(2):954-63.) method. In contact with cells, DCFH-DA is cleaved inside the cell to DCFH which is able to interact with reactive oxygen species (ROS) during oxidative stress leading to fluorescence emission. Consequently, the fluorescence emitted is correlated to the antioxidant property of the tested compound. The cell culture was done on primary cells freshly isolated from biopsies. Normal Human Epidermal Keratinocytes (NHEKs) were seeded in a black plate with a glass bottom at 20′000 cells per well in 96-wells plates with a type I collagen pre-coating in quadruplicate. The cells were incubated for 24 hours in complete medium (Epilife medium supplemented with HKGS) at 37° C. with 5% CO2. […] Finally, the emitted fluorescence was measured in darkness by excitation wavelength at 488 nm and emission wavelength at 525 nm with microplate reader (TECAN). […]

Question: For Oc1ccc(C=Cc2cc(O)cc(O)c2)cc1 [Resveratrol], which “Comparison to oxidative stress, no active” value (5 mM TBP, p < 0.001) is on record?
Answer: −76%***

Question: And the “Mean relative to TBP condition” value (ROS, NHEKs, oxidative stress 5 mM TBP)?
Answer: 24.0%
